In patent US20240199546A1, “INHIBITORS OF SOLUTE CARRIER FAMILY 6A MEMBER 19 (SLC6A19) AND METHODS OF USE THEREOF” (Maze Therapeutics, Inc., priority 2022, published 2024):

target: T1, human SLC6A19 and TMEM27 (Homo sapiens, UniProt Q695T7); assay: Radiolabelled (3H) leucine uptake in CHO cells with doxycycline-inducible expression of human SLC6A19 and TMEM27 (Example B-1); type: cell-based; settings: CHO cells with doxycycline-inducible expression of human SLC6A19 and TMEM27, read-out: SLC6A19_Radioligand Uptake Assay IC50
T1 construct: expressed in transfected cells
T1 sequence (Q695T7 1-634): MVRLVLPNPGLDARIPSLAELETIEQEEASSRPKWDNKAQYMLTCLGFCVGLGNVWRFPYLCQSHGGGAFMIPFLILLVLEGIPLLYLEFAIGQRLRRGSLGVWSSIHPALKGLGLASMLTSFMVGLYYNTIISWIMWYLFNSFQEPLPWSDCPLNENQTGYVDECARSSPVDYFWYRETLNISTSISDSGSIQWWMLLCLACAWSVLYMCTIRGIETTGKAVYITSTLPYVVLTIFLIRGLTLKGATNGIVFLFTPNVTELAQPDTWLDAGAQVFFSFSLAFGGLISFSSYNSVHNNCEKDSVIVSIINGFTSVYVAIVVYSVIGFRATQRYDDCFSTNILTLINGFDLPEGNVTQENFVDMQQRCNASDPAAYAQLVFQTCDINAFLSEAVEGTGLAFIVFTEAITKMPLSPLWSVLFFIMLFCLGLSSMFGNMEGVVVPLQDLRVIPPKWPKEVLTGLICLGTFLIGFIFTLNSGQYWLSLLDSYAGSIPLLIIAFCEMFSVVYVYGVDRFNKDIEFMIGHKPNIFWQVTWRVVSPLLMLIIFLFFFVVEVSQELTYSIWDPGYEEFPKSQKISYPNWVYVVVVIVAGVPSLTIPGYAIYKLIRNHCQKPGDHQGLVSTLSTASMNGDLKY
T1 sequence (Q9HBJ8 15-222 partner): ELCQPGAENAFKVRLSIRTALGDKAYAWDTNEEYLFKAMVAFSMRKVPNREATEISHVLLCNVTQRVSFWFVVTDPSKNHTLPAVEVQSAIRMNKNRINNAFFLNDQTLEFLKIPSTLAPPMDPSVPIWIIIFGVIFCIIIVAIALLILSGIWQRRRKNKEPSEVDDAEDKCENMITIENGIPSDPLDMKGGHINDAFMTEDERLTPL
Outline: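 CHO cells were induced with doxycycline for 18 h at 37 °C, washed in HBSS, then exposed to compounds for 1 h: 8-point, 3-fold dilutions in duplicate, 0.5% DMSO final. Uptake measured by scintillation counting after 2 h shaking. Activity normalized with positive control as 0% and DMSO as 100%.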

IC50 | Structure (SMILES)
3540 nM | Cc1cc(COc2cc3[nH]c(CNC(=O)C(C)C4COC4)cc3cc2Cl)on1 (racemic) [Compound 545, (S)-N-((5-chloro-6-((3-methylisoxazol-5-yl)methoxy)-1H-indol-2-yl)methyl)-2-(oxetan-3-yl)propenamide and (R)-N-((5-chloro-6-((3-methylisoxazol-5-yl)methoxy)-1H-indol-2-yl)methyl)-2-(oxetan-3-yl)propanamide]
64.2 nM | CC(F)C(=O)NCc1cc2cc(Cl)c(OCc3cscn3)cc2[nH]1 (single isomer, unassigned) [Compound 443, (S or R)-N-((5-chloro-6-(thiazol-4-ylmethoxy)-1H-indol-2-yl)methyl)-2-fluoropropanamide]
1050 nM | CC(NC(=O)C1(C)CC1)c1cc2cc(Cl)c(OCc3cscn3)cc2[nH]1 (racemic) [Compound 347, (S)-N-(1-(5-chloro-6-(thiazol-4-ylmethoxy)-1H-indol-2-yl)ethyl)-1-methylcyclopropane-1-carboxamide and (R)-N-(1-(5-chloro-6-(thiazol-4-ylmethoxy)-1H-indol-2-yl)ethyl)-1-methylcyclopropane-1-carboxamide]
182 nM | O=C(NCc1cc2cc(F)c(OCc3cscn3)cc2[nH]1)C(F)F [Compound 567, 2,2-difluoro-N-((5-fluoro-6-(thiazol-4-ylmethoxy)-1H-indol-2-yl)methyl)acetamide]
174 nM | Cc1cc(COc2cc3[nH]c(CNC(=O)CC(F)(F)F)cc3cc2Cl)on1 [Compound 564, N-((5-chloro-6-((3-methylisoxazol-5-yl)methoxy)-1H-indol-2-yl)methyl)-3,3,3-trifluoropropanamide]
770 nM | Cc1cc(COc2cc3[nH]c(CNC(=O)[C@@H](O)CF)cc3cc2Cl)on1 [Compound 247, (R)-N-((5-chloro-6-((3-methylisoxazol-5-yl)methoxy)-1H-indol-2-yl)methyl)-3-fluoro-2-hydroxypropanamide]
69 nM | CC(=O)NCc1cc2cc(Cl)c(OCc3cc(C)on3)cc2[nH]1 [Compound 142, N-((5-chloro-6-((5-methylisoxazol-3-yl)methoxy)-1H-indol-2-yl)methyl)acetamide]
121 nM | O=C(NCc1cc2cc(F)c(OCc3cscn3)cc2[nH]1)C1(C(F)F)CC1 [Compound 569, 1-(difluoromethyl)-N-((5-fluoro-6-(thiazol-4-ylmethoxy)-1H-indol-2-yl)methyl)cyclopropane-1-carboxamide]
327 nM | CC1(C(=O)NCc2cc3cc(F)c(OCc4cscn4)cc3[nH]2)CCC1 [Compound 507, N-((5-fluoro-6-(thiazol-4-ylmethoxy)-1H-indol-2-yl)methyl)-1-methylcyclobutane-1-carboxamide]
948 nM | Cc1cc(COc2cc3[nH]c(CNC(=O)N4CCCC4C(F)F)cc3cc2Cl)on1 (racemic) [Compound 375, (S)-N-((5-chloro-6-((3-methylisoxazol-5-yl)methoxy)-1H-indol-2-yl)methyl)-2-(difluoromethyl)pyrrolidine-1-carboxamide and (R)-N-((5-chloro-6-((3-methylisoxazol-5-yl)methoxy)-1H-indol-2-yl)methyl)-2-(difluoromethyl)pyrrolidine-1-carboxamide]
199 nM | Cc1cc(COc2cc3[nH]c(CNC(=O)c4ccno4)cc3cc2Cl)on1 [Compound 522, N-((5-chloro-6-((3-methylisoxazol-5-yl)methoxy)-1H-indol-2-yl)methyl)isoxazole-5-carboxamide]
2140 nM | CC(NC(=O)C1(C)CC1)c1cc2cc(Cl)c(OCc3ccon3)cc2[nH]1 (racemic) [Compound 395, (S)-N-(1-(5-chloro-6-(isoxazol-3-ylmethoxy)-1H-indol-2-yl)ethyl)-1-methylcyclopropane-1-carboxamide and (R)-N-(1-(5-chloro-6-(isoxazol-3-ylmethoxy)-1H-indol-2-yl)ethyl)-1-methylcyclopropane-1-carboxamide]
847 nM | Cc1cc(COc2cc3[nH]c(CNC(=O)N4CCC(C(F)F)C4)cc3cc2Cl)on1 (stereo not shown) [Compound 377, N-((5-chloro-6-((3-methylisoxazol-5-yl)methoxy)-1H-indol-2-yl)methyl)-3-(difluoromethyl)pyrrolidine-1-carboxamide]
1360 nM | O=C(NCc1cc2cc(F)c(OCc3cscn3)cc2[nH]1)C1(CO)CC1 [Compound 255, N-((5-fluoro-6-(thiazol-4-ylmethoxy)-1H-indol-2-yl)methyl)-1-(hydroxymethyl)cyclopropane-1-carboxamide]
217 nM | CC(=O)NCc1cc2cc(Cl)c(OCc3cocn3)cc2[nH]1 [Compound 206, N-((5-chloro-6-(oxazol-4-ylmethoxy)-1H-indol-2-yl)methyl)acetamide]
3520 nM | Cc1cc(COc2cc3[nH]c(CNC(=O)CN)cc3cc2Cl)on1 [Compound 617, 2-amino-N-((5-chloro-6-((3-methylisoxazol-5-yl)methoxy)-1H-indol-2-yl)methyl)acetamide]
8470 nM | CC1(C(=O)NCc2cc3cc(C4(F)CC4)c(OCc4cscn4)cc3[nH]2)CC1 [Compound 656, N-((5-(1-fluorocyclopropyl)-6-(thiazol-4-ylmethoxy)-1H-indol-2-yl)methyl)-1-methylcyclopropane-1-carboxamide]
226 nM | Cc1nc(COc2cc3[nH]c(CNC(=O)C4(C)CC4)cc3cc2Cl)no1 [Compound 318, N-((5-chloro-6-((5-methyl-1,2,4-oxadiazol-3-yl)methoxy)-1H-indol-2-yl)methyl)-1-methylcyclopropane-1-carboxamide]
5510 nM | Cc1cc(COc2cc3[nH]c(CNC(=O)N4CCC45COC5)cc3cc2Cl)on1 [Compound 378, N-((5-chloro-6-((3-methylisoxazol-5-yl)methoxy)-1H-indol-2-yl)methyl)-6-oxa-1-azaspiro[3.3]heptane-1-carboxamide]
3260 nM | CNCC(=O)NCc1cc2cc(Cl)c(OCc3cscn3)cc2[nH]1 [Compound 614, N-((5-chloro-6-(thiazol-4-ylmethoxy)-1H-indol-2-yl)methyl)-2-(methylamino)acetamide]
84.8 nM | COC(=O)NCc1cc2cc(F)c(OCc3cscn3)cc2[nH]1 [Compound 622, methyl ((5-fluoro-6-(thiazol-4-ylmethoxy)-1H-indol-2-yl)methyl)carbamate]
336 nM | CC(O)C(=O)NCc1cc2cc(Cl)c(OCc3cscn3)cc2[nH]1 (stereo not shown) [Compound 243, N-((5-chloro-6-(thiazol-4-ylmethoxy)-1H-indol-2-yl)methyl)-2-hydroxypropanamide]
> 7970 nM | Cc1cc(COc2cc3[nH]c(CNC(=O)Cn4cccn4)cc3cc2Cl)on1 [Compound 521, N-((5-chloro-6-((3-methylisoxazol-5-yl)methoxy)-1H-indol-2-yl)methyl)-2-(1H-pyrazol-1-yl)acetamide]
243 nM | O=C(NCc1cc2cc(F)c(OCc3cscn3)cc2[nH]1)C1CCO1 (stereo not shown) [Compound 264, N-((5-fluoro-6-(thiazol-4-ylmethoxy)-1H-indol-2-yl)methyl)oxetane-2-carboxamide]
532 nM | Cc1ccc(COc2cc3[nH]c(CNC(=O)C4(C)CC4)cc3cc2Cl)nc1 [Compound 21, N-((5-chloro-6-((5-methylpyridin-2-yl)methoxy)-1H-indol-2-yl)methyl)-1-methylcyclopropane-1-carboxamide]
